Assay results: US6800649B1, “Method for inhibiting c-jun expression using JAK-3 inhibitors” (Parker Hughes Institute, priority 1998, dated 2004)

Legend:
JAK-3 = target: T1, JAK-3 (Homo sapiens, UniProt P52333); assay: Immune complex hot kinase assay of JAK-3 immunoprecipitated from baculovirus-infected Sf21 cells; format: biochemical; conditions: 10 μg/ml, 1 hour exposure of immune complexes before kinase assay
T1 construct: made in house; host or cells: Sf21 insect cells (baculovirus)
T1 sequence (P52333 1-1124): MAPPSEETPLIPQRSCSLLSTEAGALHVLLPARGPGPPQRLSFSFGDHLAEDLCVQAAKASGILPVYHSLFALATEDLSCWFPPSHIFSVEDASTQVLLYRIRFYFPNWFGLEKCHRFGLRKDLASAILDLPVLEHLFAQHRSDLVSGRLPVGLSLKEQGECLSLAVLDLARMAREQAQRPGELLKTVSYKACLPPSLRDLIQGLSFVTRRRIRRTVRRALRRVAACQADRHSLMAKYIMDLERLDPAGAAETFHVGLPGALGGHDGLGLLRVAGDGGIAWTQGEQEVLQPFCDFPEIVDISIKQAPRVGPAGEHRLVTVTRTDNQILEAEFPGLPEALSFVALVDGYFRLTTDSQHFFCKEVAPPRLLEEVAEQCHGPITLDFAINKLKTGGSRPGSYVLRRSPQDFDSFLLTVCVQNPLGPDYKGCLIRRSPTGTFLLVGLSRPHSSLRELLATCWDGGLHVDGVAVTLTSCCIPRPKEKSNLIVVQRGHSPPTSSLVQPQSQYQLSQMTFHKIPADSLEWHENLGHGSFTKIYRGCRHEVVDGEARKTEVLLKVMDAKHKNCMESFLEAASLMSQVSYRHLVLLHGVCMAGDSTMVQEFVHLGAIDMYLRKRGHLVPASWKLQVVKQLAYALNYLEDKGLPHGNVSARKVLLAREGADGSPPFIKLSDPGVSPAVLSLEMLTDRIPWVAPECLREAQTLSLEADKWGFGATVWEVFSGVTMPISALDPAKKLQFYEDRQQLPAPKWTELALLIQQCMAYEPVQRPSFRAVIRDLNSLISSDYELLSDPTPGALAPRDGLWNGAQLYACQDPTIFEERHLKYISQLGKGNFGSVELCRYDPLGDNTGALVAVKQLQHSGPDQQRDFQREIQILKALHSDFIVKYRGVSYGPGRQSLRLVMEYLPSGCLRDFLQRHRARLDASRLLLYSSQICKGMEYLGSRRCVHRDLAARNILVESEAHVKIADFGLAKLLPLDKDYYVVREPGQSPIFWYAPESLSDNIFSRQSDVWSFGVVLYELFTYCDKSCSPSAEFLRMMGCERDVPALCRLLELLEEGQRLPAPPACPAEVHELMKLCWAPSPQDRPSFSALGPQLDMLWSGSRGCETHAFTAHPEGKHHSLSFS
Method: (§1) FIGS. 4B1-B4. JAK-3 Inhibitors. [A]. Structures of JAK-3 inhibitors. [B] Specificity of JAK-3 inhibitors. Sf21 cells infected with baculovirus expression vectors for JAK-1 JAK-2 or JAK-3 were subjected to immunoprecipitation with anti-JAK antibodies. JAK-1 (shown in B.1), JAK-2 (shown in B.2) and JAK-3 (shown in B.3 and B.4 which illustrate results from 2 independent experiments) immune complexes were treated with 1% DMSO (vehicle control=CON), Compound 1, or Compound 2 for 1 hour prior to hot kinase assays, as described (20,22). […] EMSAs of […]-IL-2Rβ cells. Compound 1(100 (g/ml) and Compound 2 (100 (g/ml) inhibited IL-2 triggered JAK-3-dependent STAT activation but not IL-3-triggered JAK-1/JAK-2-dependent STAT activation in 32Dc11-IL-2Rβ cells.
(§2) After establishing that LYN, BTK, and SYK kinases are not required for radiation-induced c-jun activation, we set out to determine if c-jun activation is functionally linked to the JAK-STAT pathway. To this end, we examined the effects of a JAK-3 inhibitory novel quinazoline derivative on c-jun expression levels in irradiated DT-40 cells. To identify a potent JAK-3 specific inhibitor, the effects of two novel quinazoline derivatives on the enzymatic activity of JAK-1, JAK-2, and JAK-3 were examined using Sf21 cells that were infected with baculovirus expression vectors for these kinases, using standard methods (FIG. 4). […]

JAK-1 = target: T2, JAK-1 (Homo sapiens, UniProt P23458); assay: Immune complex hot kinase assay of JAK-1 immunoprecipitated from baculovirus-infected Sf21 cells; format: biochemical; conditions: even at 75 μg/ml, 1 hour exposure of immune complexes before kinase assay
T2 construct: made in house; host or cells: Sf21 insect cells (baculovirus)
T2 sequence (P23458 whole entry, species assumed): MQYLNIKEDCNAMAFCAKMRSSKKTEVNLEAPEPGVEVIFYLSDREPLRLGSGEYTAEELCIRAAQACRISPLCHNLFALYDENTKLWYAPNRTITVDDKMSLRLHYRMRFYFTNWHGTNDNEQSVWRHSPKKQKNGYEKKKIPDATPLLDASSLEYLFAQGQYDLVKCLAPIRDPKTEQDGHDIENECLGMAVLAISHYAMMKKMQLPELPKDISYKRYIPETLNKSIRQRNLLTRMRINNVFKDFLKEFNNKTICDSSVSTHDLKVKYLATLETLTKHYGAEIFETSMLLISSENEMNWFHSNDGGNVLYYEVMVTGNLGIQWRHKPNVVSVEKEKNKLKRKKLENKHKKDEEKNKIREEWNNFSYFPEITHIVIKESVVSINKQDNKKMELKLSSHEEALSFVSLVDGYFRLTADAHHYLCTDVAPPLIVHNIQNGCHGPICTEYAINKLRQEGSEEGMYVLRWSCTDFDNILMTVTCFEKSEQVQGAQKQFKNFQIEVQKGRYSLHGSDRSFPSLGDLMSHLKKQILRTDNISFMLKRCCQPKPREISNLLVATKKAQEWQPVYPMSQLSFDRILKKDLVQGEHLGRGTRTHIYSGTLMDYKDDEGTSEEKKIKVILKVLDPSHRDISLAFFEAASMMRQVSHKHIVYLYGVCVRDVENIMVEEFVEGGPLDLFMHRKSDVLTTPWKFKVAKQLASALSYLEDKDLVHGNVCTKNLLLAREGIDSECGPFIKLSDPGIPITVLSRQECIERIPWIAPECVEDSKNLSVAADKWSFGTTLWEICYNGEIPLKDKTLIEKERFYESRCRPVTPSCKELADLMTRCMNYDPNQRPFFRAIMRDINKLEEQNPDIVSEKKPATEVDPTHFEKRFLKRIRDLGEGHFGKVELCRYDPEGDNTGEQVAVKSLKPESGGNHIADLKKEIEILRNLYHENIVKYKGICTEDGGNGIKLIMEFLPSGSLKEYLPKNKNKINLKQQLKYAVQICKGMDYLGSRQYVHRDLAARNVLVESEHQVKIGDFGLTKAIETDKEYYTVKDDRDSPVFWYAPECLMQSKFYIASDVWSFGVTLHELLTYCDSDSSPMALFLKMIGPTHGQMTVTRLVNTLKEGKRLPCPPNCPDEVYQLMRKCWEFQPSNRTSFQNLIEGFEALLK
Method: as §1, §2

JAK-2 = target: T3, JAK-2 (Homo sapiens, UniProt O60674); assay: Immune complex hot kinase assay of JAK-2 immunoprecipitated from baculovirus-infected Sf21 cells; format: biochemical; conditions: even at 75 μg/ml, 1 hour exposure of immune complexes before kinase assay
T3 construct: made in house; host or cells: Sf21 insect cells (baculovirus)
T3 sequence (O60674 whole entry, species assumed): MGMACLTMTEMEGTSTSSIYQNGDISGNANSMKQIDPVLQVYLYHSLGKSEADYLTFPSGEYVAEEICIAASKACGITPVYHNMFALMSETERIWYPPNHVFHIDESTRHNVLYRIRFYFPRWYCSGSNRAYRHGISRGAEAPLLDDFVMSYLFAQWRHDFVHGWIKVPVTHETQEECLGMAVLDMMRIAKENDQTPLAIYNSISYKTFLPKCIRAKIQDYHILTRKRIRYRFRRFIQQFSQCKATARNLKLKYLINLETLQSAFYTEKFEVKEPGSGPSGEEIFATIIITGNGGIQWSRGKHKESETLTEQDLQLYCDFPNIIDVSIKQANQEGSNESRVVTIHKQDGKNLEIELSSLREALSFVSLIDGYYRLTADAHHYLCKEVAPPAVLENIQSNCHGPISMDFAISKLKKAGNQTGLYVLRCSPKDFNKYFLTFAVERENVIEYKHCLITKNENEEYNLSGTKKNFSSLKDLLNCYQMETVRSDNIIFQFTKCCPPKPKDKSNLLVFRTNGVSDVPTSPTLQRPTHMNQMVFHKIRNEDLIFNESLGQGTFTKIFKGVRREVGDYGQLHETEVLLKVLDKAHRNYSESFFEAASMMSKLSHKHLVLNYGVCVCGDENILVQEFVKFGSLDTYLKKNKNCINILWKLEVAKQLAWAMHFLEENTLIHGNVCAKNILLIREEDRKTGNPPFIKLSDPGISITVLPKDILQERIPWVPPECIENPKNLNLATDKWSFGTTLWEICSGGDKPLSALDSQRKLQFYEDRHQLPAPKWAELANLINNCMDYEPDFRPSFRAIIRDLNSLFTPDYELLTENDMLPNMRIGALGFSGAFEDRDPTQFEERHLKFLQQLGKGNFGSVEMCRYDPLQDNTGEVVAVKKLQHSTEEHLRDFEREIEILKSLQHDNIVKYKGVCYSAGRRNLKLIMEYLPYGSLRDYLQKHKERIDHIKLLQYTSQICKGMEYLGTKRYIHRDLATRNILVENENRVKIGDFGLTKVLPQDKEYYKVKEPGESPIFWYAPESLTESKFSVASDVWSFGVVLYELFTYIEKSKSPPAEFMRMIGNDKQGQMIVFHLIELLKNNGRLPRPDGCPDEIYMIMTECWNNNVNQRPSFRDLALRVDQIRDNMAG
Method: as §1, §2

[1] = test system: IL-2 triggered JAK-3-dependent STAT activation; assay: EMSA of IL-2 triggered STAT activation in 32Dc11-IL-2Rβ cells; format: cell-based; conditions: 100 (g/ml, EMSA (FIG. 4C legend))
Method: as §1
Electrophoretic Mobility Shift Assays (EMSAs) were performed to examine the effects of both compounds on cytokine-induced STAT activation. Specifically, 32Dc11/IL2Rβ cells (gift from James Ihle, St. Jude Children's Research Hospital) were exposed at 8×10^6/ml in RPMI supplemented with FBS to the JAK-3 inhibitors at a final concentration of 10 μg/ml in 1% DMSO) for 1 hour and subsequently stimulated with IL2 or IL3 as indicated. […]

[2] = test system: c-jun expression in DT-40 chicken lymphoma B-cells; assay: Radiation-induced c-jun mRNA expression by Northern blot; format: cell-based; parameters: unit of the concentration uncertain; conditions: DT-40 cells
Method: FIGS. 1A and 1B. Radiation-induced c-jun activation in wild-type DT-40 lymphoma B-cells. [A]. Dose reponse for induction of c-jun mRNA. DT-40 chicken cells were irradiated at the indicated doses (0, 10, 15, 20 Gy). Total RNA was extracted after a 2 hours or 4 hours post-irradiation time period. RNA ([…]) was loaded on a Northern gel and transferred by capillary blotting to a nylon membrane. The Northern blot was hybridized with a ^32P labeled chicken c-jun probe (top panel) or a chicken GAPDH probe (bottom panel). […] Effect of the PTK inhibitor genistein on induction of c-jun mRNA. Cells were treated with […] of genistein for 24 hours at 37° C. prior to exposure to 20 Gy ionizing radiation. c-jun expression levels were determined as in [A].
FIG. 5. Effects of a JAK-3 inhibitor on c-jun induction in irradiated DT-40 cells. Cells were treated with the quinazoline derivative 4(3′-Bromo-4′-hydroxyl-phenyl)-amino-6,7-dimethoxyquinazoline ([…]) for 24 hours at 37° C. prior to exposure to 20 Gy ionizing radiation. c-jun expression levels were determined as outlined in FIGS. 1-3. […]
A 506 basepair (bp) c-jun probe was obtained by polymerase chain reaction (PCR) amplification of chicken genomic DNA. Primer sequences were determined based upon the sequence of chicken c-jun (GenBank accession code CHKJUN). […]

| Compound | inhibition of JAK-3 enzymatic activity (JAK-3) | inhibition of JAK-1 enzymatic activity (JAK-1) | inhibition of JAK-2 enzymatic activity (JAK-2) | inhibition of IL-2 triggered JAK-3-dependent STAT activation [1] | induction of c-jun expression by ionizing radiation in treated cells ([2]; 100 (unit uncertain) for 24 hours at 37° C. before 20 Gy ionizing radiation) | stimulation index (c-jun/GAPDH ratio, irradiated versus non-irradiated cells) ([2]; 30 (unit uncertain) for 24 hours at 37° C. before 20 Gy ionizing radiation) |
| --- | --- | --- | --- | --- | --- | --- |
| COc1cc2ncnc(Nc3ccc(O)cc3)c2cc1OC [Compound 1, 4-(4′-Hydroxylphenyl)-amino-6,7-dimethoxy-quinazoline] | inhibited | did not inhibit | did not inhibit | inhibited | – | – |
| COc1cc2ncnc(Nc3ccc(O)c(Br)c3)c2cc1OC [Compound 2, 4-(3′-Bromo-4′-hydroxylphenyl)-amino-6,7-dimethoxy-quinazoline] | inhibited | did not inhibit | did not inhibit | inhibited | failed to induce c-jun expression | – |
| O=c1c(-c2ccc(O)cc2)coc2cc(O)cc(O)c12 [genistein, reference compound] | – | – | – | – | – | 1.1 |
